Test results as given in patent US8084479B2, “Thiazole compounds and methods of use” (Amgen Inc., priority 2006, dated 2011).

Target: PKBα (Homo sapiens, UniProt P31749)
Assay: PKB kinase assay (P33-labeled ATP, peptide substrate, filter plate)
Format: biochemical
Conditions: PKBα enzyme (full length or kinase domain with pleckstrin domain deleted)
Description: The kinase assay for evaluating PKB activity comprises active PKB enzymes, a PKB specific substrate, and P^33-labeled ATP. […] The phosphorylated substrate was captured by a phosphocellulose membrane filter plate (MLLIPORE) and measured by a Wallac Microbeta liquid scintillation counter (Perkin Elmer).

Sequence of PKBα (P31749 118-480 limits assumed): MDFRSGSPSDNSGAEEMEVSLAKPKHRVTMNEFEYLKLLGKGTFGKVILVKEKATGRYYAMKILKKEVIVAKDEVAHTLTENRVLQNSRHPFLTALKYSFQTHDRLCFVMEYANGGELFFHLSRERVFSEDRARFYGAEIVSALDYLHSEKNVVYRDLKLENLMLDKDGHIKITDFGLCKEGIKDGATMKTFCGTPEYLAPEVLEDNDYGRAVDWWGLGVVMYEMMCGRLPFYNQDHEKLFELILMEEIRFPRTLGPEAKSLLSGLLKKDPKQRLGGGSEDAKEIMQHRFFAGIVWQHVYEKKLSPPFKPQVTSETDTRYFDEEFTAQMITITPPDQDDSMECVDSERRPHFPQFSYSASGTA

Structure (SMILES)	IC50 [nM]
CCC[C@@H](c1ccc(C(F)(F)F)cc1)[C@H](N)CNc1ncc(-c2ccc3c(c2)CC(=O)N3)s1 [Example 156, 5-(2-((2S,3S)-2-amino-3-(4-(trifluoromethyl)phenyl)hexylamino)thiazol-5-yl)indolin-2-one]	50 to 1000
NC(CNc1ncc(-c2ccc3c(c2)CC(=O)N3)s1)Cc1ccc(O)c(F)c1 (stereo not shown) [Example 217, 5-(2-(2-Amino-3-(3-fluoro-4-hydroxyphenyl)propylamino)thiazol-5-yl)indolin-2-one]	50 to 1000
N#Cc1nc(NC[C@@H](N)Cc2ccc(C(F)(F)F)cc2)sc1-c1ccc2c(c1)CC(=O)N2 [Example 61, 2-((S)-2-amino-3-(4-(trifluoromethyl)phenyl)propylamino)-5-(2-oxoindolin-5-yl)thiazole-4-carbonitrile]	1000 to 10000
COCc1nc(NC[C@@H](N)Cc2ccc(C(F)(F)F)cc2)sc1-c1ccc2[nH]c(=O)oc2c1 [Example 59, 6-(2-((S)-2-amino-3-(4-(trifluoromethyl)phenyl)propylamino)-4-(methoxymethyl)thiazol-5-yl)benzo[d]oxazol-2(3H)-one]	< 50
N[C@H](CNc1nc(COCC(F)(F)F)c(-c2nc3ccncc3s2)s1)Cc1cccc(Cl)c1 [Example 20, N—((S)-2-amino-3-(3-chlorophenyl)propyl)-5-(thiazolo[5,4-c]pyridin-2-yl)-4-((2,2,2-trifluoroethoxy)methyl)thiazol-2-amine]	1000 to 10000
NC(CNc1nc(Cl)c(-c2ccc3cnccc3c2)s1)Cc1ccc(C(F)(F)F)cc1 (stereo not shown) [Example 165]	50 to 1000
N[C@H](CNc1ncc(-c2ccc3cnccc3c2)s1)Cc1ccc(C(F)(F)F)c(O)c1 [Example 208, 5-((S)-2-amino-3-(5-(isoquinolin-6-yl)thiazol-2-ylamino)propyl)-2-(trifluoromethyl)phenol]	< 50
Nc1cc2cc(-c3cnc(NC[C@@H](N)Cc4ccc(C(F)(F)F)cc4)s3)ccc2cn1 [Example 75, 6-(2-((S)-2-Amino-3-(4-(trifluoromethyl)phenyl)propylamino)thiazol-5-yl)isoquinolin-3-amine]	< 50
CNc1n[nH]c2ccc(-c3cnc(NC[C@@H](N)Cc4c[nH]c5ccccc45)s3)cc12 [Example 45, 5-(2-((S)-2-amino-3-(1H-indol-3-yl)propylamino)thiazol-5-yl)-N-methyl-1H-indazol-3-amine]	1000 to 10000

Second part, the molecule after the results:

IC50 [nM]	Structure (SMILES)
50 to 1000	NC(CNc1ncc(-c2ccc3[nH]c(=O)oc3c2)s1)Cc1ccc(OC(F)(F)F)cc1 (stereo not shown) [Example 187, 6-(2-(-2-amino-3-(4-(trifluoromethoxy)phenyl)propylamino)thiazol-5-yl)benzo[d]oxazol-2(3H)-one]
< 50	N[C@H](CNc1ncc(-c2ccc3cncnc3c2)s1)Cc1ccc(C(F)(F)F)cc1 [Example 253, N—((S)-2-Amino-3-(4-(trifluoromethyl)phenyl)propyl)-5-(quinazolin-7-yl)thiazol-2-amine]
< 50	N[C@H](CNc1ncc(-c2ccc3[nH]ncc3c2)s1)Cc1ccc(C(F)(F)F)c(F)c1 [Example 186, N—((S)-2-amino-3-(3-fluoro-4-(trifluoromethyl)phenyl)propyl)-5-(1H-indazol-5-yl)thiazol-2-amine]
1000 to 10000	N[C@H](CNc1ncc(-c2ccc3cn[nH]c(=O)c3c2)s1)Cc1ccc(C(F)(F)F)cc1 [Example 252, 7-(2-((S)-2-amino-3-(4-(trifluoromethyl)phenyl)propylamino)thiazol-5-yl)phthalazin-1 (211)-one]
1000 to 10000	Cn1c(=O)[nH]c2ccc(-c3sc(NC[C@@H](N)Cc4ccc(C(F)(F)F)cc4)nc3C(F)(F)CO)cc21 [Example 136, 6-(2-((S)-2-Amino-3-(4-(trifluoromethyl)phenyl)propylamino)-4-(1,1-difluoro-2-hydroxyethyl)thiazol-5-yl)-1-methyl-1H-benzo[d]imidazol-2(3H)-one]
< 50	CNC(=O)c1nc(NC[C@@H](N)Cc2ccc(C(F)(F)F)cc2)sc1-c1ccc2cnccc2c1 [Example 120, 2-((S)-2-amino-3-(4-(trifluoromethyl)phenyl)-propylamino)-5-(isoquinolin-6-yl)-N-methylthiazole-4-carboxamide]
1000 to 10000	NC(=O)c1ccc(-c2cnc(NC[C@@H](N)Cc3ccc(C(F)(F)F)cc3)s2)cc1 [Example 49, (S)-4-(2-(2-amino-3-(4-(trifluoromethyl)phenyl)propylamino)thiazol-5-yl)benzamide]
